pIC50: −log10 of the molar value. Where a name gives a salt, the structure may show the parent alone.
Experiments:
[1] = tested on: Calu-6 non-small cell lung cancer cell line of a mutation RONΔ155 type; assay: MTS assay, cell growth inhibitory ability, Calu-6; format: cell-based; conditions: Homo sapiens; Calu-6, RON mutation Δ155, 72 hours
Procedure: (§1) In order to compare and confirm the cell growth inhibitory ability of Examples 1 (WM-S1-030) to 5, positive control 1 (BMS-777607) and positive control 2 (AMG-510) in four non-small cell lung cancer cell lines of a mutation RONΔ155 type (Calu-6, A549, NCI-H358, NCI-H1944), MTS assay was carried out.
(§2) For MTS assay, 1,000 cells of each non-small cell lung cancer cell line per well were seeded in a 96-well-plate, and 24 hours later, treated with the compounds of Examples 1 to 5, positive control 1 and positive control 2 at various concentrations ([…]) in 100 μL of 10% FBS-RPMI medium (Welgene) per each well. Thereafter, the cells were cultured for 72 hours, and then 20 μL of MTS solution (Promega) was added and cultured for 2 hours, and then absorbance was measured at 490 nm. The cytotoxicity was analyzed by deriving the IC50 for the compounds of Examples 1 to 5, positive control 1 and positive control 2 using GraphPad Prism™ 5.

[2] = tested on: A549 non-small cell lung cancer cell line of a mutation RONΔ155 type; assay: MTS assay, cell growth inhibitory ability, A549; format: cell-based; conditions: Homo sapiens; A549, RON mutation Δ155, 72 hours
Procedure: as §1, §2

[3] = tested on: NCI-H358 non-small cell lung cancer cell line of a mutation RONΔ155 type; assay: MTS assay, cell growth inhibitory ability, NCI-H358; format: cell-based; conditions: Homo sapiens; NCI-H358, RON mutation Δ155, 72 hours
Procedure: as §1, §2

[4] = tested on: NCI-H1944 non-small cell lung cancer cell line of a mutation RONΔ155 type; assay: MTS assay, cell growth inhibitory ability, NCI-H1944; format: cell-based; conditions: Homo sapiens; NCI-H1944, RON mutation Δ155, 72 hours
Procedure: as §1, §2

[5] = tested on: A549 non-small cell lung cancer cell line of a mutation RONΔ155 type; assay: Cell killing efficacy, trypan blue exclusion assay, A549; format: cell-based; conditions: A549, 1 μM, 48 hours, FIG. 1
Procedure: (§3) A549 and NCI-H358, which are non-small cell lung cancer cell lines of a mutation RONΔ155 type, were dispensed, and 24 hours later, treated with 1 μM of the compounds of Examples 1 (WM-S1-030) to 5, positive control 1 (BMS-777607) and positive control 2 (AMG-510), respectively, while replacing the medium. After 48 hours, the cells and the cell fluid were harvested (1500 rpm, 4 min), and live cells and dead cells were quantified through trypan blue (15250-061, Gibco) exclusion assay. Statistical analysis was performed using T-test in Excel.

[6] = tested on: NCI-H358 non-small cell lung cancer cell line of a mutation RONΔ155 type; assay: Cell killing efficacy, trypan blue exclusion assay, NCI-H358; format: cell-based; conditions: NCI-H358, 1 μM, 48 hours, FIG. 1
Procedure: as §3

[7] = tested on: NCI-H460 (mRONΔ165) non-small cell lung cancer cell line transplanted mouse model; assay: Tumor growth inhibition in NCI-H460 transplanted animal model; format: in vivo; conditions: NCI-H460 xenograft, 50 mg/kg, once a day for 2 weeks
Procedure: It was confirmed whether tumor growth was inhibited by administering Example 1 (WM-S1-030) at a dose of 50 mpk to a mouse model transplanted with NCI-H460, which is a non-small cell lung cancer cell line of a mutation RONΔ165 type. Specifically, 5-week-old female BALB/c-nude mice were purchased and acclimatized for 1 week. Thereafter, NCI-H460 (2×10^6 cells/mouse), a non-small cell lung cancer cell line of a mutation RONΔ165 type, was diluted in PBS and Matrigel, and 200 μL was injected subcutaneously into the right dorsal side of the mouse. When the size of the tumor reached about 100 mm^3, the negative control (excipient) and Example 1 were orally administered. In this case, positive control 1 (BMS-777607) was administered at a dose of 50 mpk. The drug was administered once a day for 2 weeks, and the tumor size and body weight were measured twice a week. After the drug administration was completed, the mice were euthanized, the tumor was extracted, and the weight was measured.

[8] = tested on: A549 (mRONΔ155) non-small cell lung cancer cell line transplanted mouse model; assay: Tumor growth inhibition in A549 transplanted animal model; format: in vivo; conditions: A549 xenograft, 50 mg/kg, orally once a day for 3 weeks
Procedure: (§4) It was confirmed whether tumor growth was inhibited by administering Example 1 (WM-S1-030) at a dose of 50 mpk to a mouse model transplanted with A549, which is a non-small cell lung cancer cell line of a mutation RONΔ155 type. Specifically, 5-week-old female BALB/c-nude mice were purchased and acclimatized for 1 week. Thereafter, A549 (5×10^6 cells/mouse), a non-small cell lung cancer cell line of a mutation RONΔ155 type, was diluted in PBS (phosphate buffered saline), and 100 μL was injected subcutaneously into the right dorsal side of the mouse. When the size of the tumor reached about 100 mm^3, the negative control (excipient) and Example 1 were orally administered. The drug was administered once a day for 3 weeks, and the tumor size and body weight were measured twice a week. After the drug administration was completed, the mice were euthanized, the tumor was extracted, and the weight was measured.

[9] = tested on: NCI-H358 (mRONΔ155) non-small cell lung cancer cell line transplanted mouse model; assay: Tumor growth inhibition in NCI-H358 transplanted animal model; format: in vivo; conditions: NCI-H358 xenograft, orally once a day for 38 days
Procedure: as §4, with “of 3 mpk, 10 mpk and 30” for “of 50”, “with NCI-H358,” for “with A549,”, “Thereafter, NCI-H358” for “Thereafter, A549”, “PBS” for “PBS (phosphate buffered saline),”, “and Matrigel, and 200” for “and 100”, “for 38 days,” for “for 3 weeks,”

[10] = tested on: pTyr-mRON, cleaved caspase 3, cyclin D1 in NCI-H358 (mRONΔ155) tumor; assay: Protein expression change by immunochemical staining of tumor tissue, NCI-H358 transplanted animal model; format: in vivo, mouse; conditions: 3 mpk, 10 mpk, 30 mpk, FIG. 4
Procedure: (§5) Example 1 (WM-S1-030) was administered at each concentration (3 mpk, 10 mpk, 30 mpk) to a mouse model transplanted with NCI-H358, which is a non-small cell lung cancer cell line of a mutation RONΔ155 type, and then the tumor was extracted, and the expression changes of the proteins were analyzed by immunochemical staining.
(§6) Specifically, paraffin slides were prepared using tissues isolated from the sacrificed mice. The tissue sections were deparaffinized and rehydrated, immersed in the target recovery buffer 1×(ScyTek Laboratories, Cat #CBB999) and heated for 15 minutes to perform an antigen recovery process. After the reaction, the tissue sections were washed in Tris buffered saline-0.05% Tween 20 (TBS-T)(T&I, BTT-9310) for 5 minutes, and then the reaction was performed with a non-specific antibody response blocking reagent (vector, SP-5035) for 1 hour.
(§7) The tissue sections were cultured at 4° C. overnight with mRON (Abcam, ab52927, 1:50), pTyr-mRON (Mybioscience, MBS462024, 1:100), cleaved caspase 3 (Asp175)(R&D Systems, MAB835, 1:50), and cyclin D1 (cyclin D1 (SP4), #Z2027RS, 1:100) and then washed with TBS-T for 5 minutes, and then endogenous peroxidase activity was blocked using a peroxidase blocking reagent (Cellmarque, 925B-05). Thereafter, the tissue sections were washed with TBS-T for 5 minutes and then incubated with a rabbit secondary antibody (vector, PK-6101) at room temperature for 1 hour. The tissue sections were washed with TBS-T for 5 minutes and then colored with diaminobenzidine (cat #SK-4100). In order to stain the nuclei of the tissues, they were stained with hematoxylin (ScyTek Laboratories, HMM999) for 1 minute, dehydrated, and then encapsulated.

[11] = tested on: pTyr-mRON, cleaved caspase 3, cyclin D1 in NCI-H460 (mRONΔ165) tumor; assay: Protein expression change by immunochemical staining of tumor tissue, NCI-H460 transplanted animal model; format: in vivo, mouse; conditions: 30 mpk, 50 mpk, FIG. 6
Procedure: as §5, with “(30” for “(3”, “50” for “10 mpk, 30”, “mpk) and positive control 1 was administered at a dose of 50 mpk” for “mpk)”, “NCI-H460,” for “NCI-H358,”, “RONΔ165” for “RONΔ155”
as §6
as §7, with “1:50),” for “1:50), and”

Row | SMILES | pIC50 [1] | pIC50 [2] | pIC50 [3] | pIC50 [4] | Cell killing efficacy (cell death) [5] | Cell killing efficacy (cell death) [6] | Tumor growth inhibition rate (TGI, %) [7] [%] | Tumor growth inhibition rate (TGI, %) [8] [%] | Tumor growth inhibition rate (TGI, %) ([9]; 3 mg/kg) [%] | Tumor growth inhibition rate (TGI, %) ([9]; 10 mg/kg) [%] | Tumor growth inhibition rate (TGI, %) ([9]; 30 mg/kg) [%] | expression of cleaved caspase 3 [10] | expression of cyclin D1, a PD marker [10] | expression of pTyr-mRON [10] | expression of cleaved caspase 3 [11] | expression of cyclin D1, a PD marker [11] | expression of pTyr-mRON [11]
1 | CCOc1ccn(-c2ccc(F)cc2)c(=O)c1C(=O)Nc1ccc(Oc2ccnc(N)c2Cl)c(F)c1 [Positive control 1, N-{4-[(2-amino-3-chloro-4-pyridinyl)oxy]-3-fluorophenyl}-4-ethoxy-1-(4-fluorophenyl)-2-oxo-1,2-dihydro-3-pyridinecarboxamide, reference compound] | < 5.00 | < 5.00 | < 5.00 | < 5.00 | response to the drug was low | response to the drug was low | 26.1 ± 1.7 | – | – | – | – | – | – | – | – | – | –
2 | COc1cc2c(Oc3ccc(NC(=O)c4c5c(cn(-c6ccc(F)cc6)c4=O)CCO5)cc3F)ccnc2cc1OCCN1CCOCC1 [Example 4, N-(3-fluoro-4-{[6-methoxy-7-(2-morpholinoethoxy)quinolin-4-yl]oxy}phenyl)-5-(4-fluorophenyl)-6-oxo-2,3,5,6-tetrahydrofuro[3,2-c]pyridine-7-carboxamide] | 6.07 | 6.43 | 6.05 | 6.22 | – | – | – | – | – | – | – | – | – | – | – | – | –
3 | CCOc1ccn(-c2ccccc2)c(=O)c1C(=O)Nc1ccc(Oc2ccnc3cc(-c4ccc(CN5CCN(C)CC5)cn4)sc23)c(F)c1 [Example 3, hydrochloride] | 5.81 | 6.21 | 5.58 | 5.67 | – | – | – | – | – | – | – | – | – | – | – | – | –

Continued, in another order:

Row | pIC50 [1] | pIC50 [2] | pIC50 [3] | pIC50 [4] | SMILES | Cell killing efficacy (cell death) [5] | Cell killing efficacy (cell death) [6] | Tumor growth inhibition rate (TGI, %) [7] [%] | Tumor growth inhibition rate (TGI, %) [8] [%] | Tumor growth inhibition rate (TGI, %) ([9]; 3 mg/kg) [%] | Tumor growth inhibition rate (TGI, %) ([9]; 10 mg/kg) [%] | Tumor growth inhibition rate (TGI, %) ([9]; 30 mg/kg) [%] | expression of cleaved caspase 3 [10] | expression of cyclin D1, a PD marker [10] | expression of pTyr-mRON [10] | expression of cleaved caspase 3 [11] | expression of cyclin D1, a PD marker [11] | expression of pTyr-mRON [11]
4 | 5.88 | 6.72 | 6.57 | 6.51 | COc1cc2c(Oc3ccc(NC(=O)c4c5c(cn(-c6ccc(F)cc6)c4=O)CCO5)cc3F)ccnc2cc1OCCCN1CC(C#N)C1 [Example 5, N-[4-({7-[3-(3-cyanoazetidin-1-yl)propoxy]-6-methoxyquinolin-4-yl}oxy)-3-fluorophenyl]-5-(4-fluorophenyl)-6-oxo-2,3,5,6-tetrahydrofuro[3,2-c]pyridine-7-carboxamide] | – | – | – | – | – | – | – | – | – | – | – | – | –
5 | 5.14 | 5.71 | 5.04 | < 5.00 | CCOc1ccn(-c2ccccc2)c(=O)c1C(=O)Nc1ccc(Oc2ccnc3cc(-c4ccc(CNCCOC)cn4)sc23)c(F)c1 [Example 2, 4-ethoxy-N-(3-fluoro-4-{[2-(5-{[(2-methoxyethyl)amino]methyl}pyridin-2-yl)thieno[3,2-b]pyridin-7-yl]oxy}phenyl)-2-oxo-1-phenyl-1,2-dihydropyridine-3-carboxamide hydrochloride] | – | – | – | – | – | – | – | – | – | – | – | – | –
6 | 6.14 | 5.69 | 5.90 | 5.79 | CCOc1ccn(-c2ccc(F)cc2)c(=O)c1C(=O)Nc1ccc(Oc2ccnc3cc(-c4ccc(CN5CCOCC5)cn4)sc23)c(F)c1.Cl [Example 1, 4-ethoxy-N-[3-fluoro-4-({2-[5-(morpholinomethyl)pyridin-2-yl]thieno[3,2-b]pyridin-7-yl}oxy)phenyl]-1-(4-fluorophenyl)-2-oxo-1,2-dihydropyridine-3-carboxamide hydrochloride] | – | – | 69.7 ± 5.4 | 58.9 ± 3.8 | 12.3 ± 13.8 | 64.5 ± 6.2 | 91.0 ± 2.3 | induced | decreased | decreased | induced | decreased | decreased
7 | < 5.00 | < 5.00 | 7.30 | < 5.00 | C=CC(=O)N1CCN(c2nc(=O)n(-c3c(C)ccnc3C(C)C)c3nc(-c4c(O)cccc4F)c(F)cc23)[C@@H](C)C1 [Positive control 2, reference compound] | response to the drug was low | response to the drug was low | – | – | – | – | – | – | – | – | – | – | –

From patent US20230241073A1, “PHARMACEUTICAL COMPOSITION FOR PREVENTING OR TREATING NON-SMALL CELL LUNG CANCER ASSOCIATED WITH RON MUTANTATION, AND METHOD USING SAME” (WELLMARKER BIO CO., LTD., priority 2020, published 2023)
